In BindingDB's records for doi:10.1021/np020058m (Kyoto Pharmaceutical University, 2002):

Target: Aldo-keto reductase family 1 member B1 (Rattus norvegicus, UniProt P07943)
Assay: Inhibition of aldose reductase in rat lens homogenates by fluorophotometer

Compound | IC50 [µM]
C[C@@H]1O[C@@H](O[C@H]2[C@H](Oc3c(-c4ccc(O)c(O)c4)oc4cc(O)cc(=O)c-4c3O)O[C@H](CO)[C@H](O)[C@@H]2O)[C@H](O)[C@H](O)[C@H]1O [quercetin 3-O-neohesperidoside] | 18
CC(=O)O[C@H]1[C@H](Oc2c(-c3ccc(O)c(O)c3)oc3cc(O)cc(=O)c-3c2O)O[C@H](CO[C@@H]2O[C@@H](C)[C@H](O)[C@@H](O)[C@H]2O)[C@@H](O)[C@@H]1O [3-O-alpha-L-rhamnopyranosyl(1->6)-2''-O-acetyl-beta-D-glucopyranoside] | 18
